According to paper PMC3922537 (Organic & biomolecular chemistry, 2013):

Test system: CYP76AH4
Assay: in vitro hydroxylation assay of recombinant enzyme, GC-MS
Assay type: cell-based, Salvia rosmarinus
Conditions: C12-hydroxylation to ferruginol; enzyme preparation not described in main text

CC(C)c1ccc2c(c1)CC[C@H]1C(C)(C)CCC[C@]21C [compound 3, abietatriene]
Km: 25 ± 6 µM
